{"source": "patent US20170189326A1", "about": "“Topical Antiaging Polyphenol Compositions” (priority 2015, published 2017)", "origin": "cited, not measured here", "test_system": "dimethylnitrosamine-induced hepatic injury", "conditions": "oral administration, rats", "data": [{"smiles": "COc1cc(/C=C/C(=O)CC(=O)/C=C/c2ccc(O)c(OC)c2)ccc1O", "note": "[curcumin]", "values": [{"measurement": "protection against dimethylnitrosamine-induced hepatic injury", "value": "protected"}]}]}
